Measurements: patent publication US20170360863A1, “USE OF POLYACETYLENIC GLYCOSIDES FOR SUPPRESSION OF GRANULOCYTIC MYELOID-DERIVED SUPPRESSOR CELL ACTIVITIES AND TUMOR METASTASIS” (Academia Sinica, priority 2014, published 2017)

Experiments:
[1] = test system: granulocytic and monocytic MDSCs; assay: MDSC populations in organs of tumor-resected mice (flow cytometry); assay type: in vivo, BALB/c mice; settings: 23 days post tumor resection
Description: Lung tissues of test mice were harvested and minced with 150 U/mL Type I Collagenase in tissue grinders for 20 to 50 times. After digestion and lysed with ACK buffer, grinded tissues were collected and filtered through 40 μm cell strainer. Spleen tissues were minced gently with PBS in tissue grinders. After lysed with ACK buffer, cells were collected for further analysis. Blood were lysed with ACK buffer for 3 times and harvested for further analysis. All cells were collected and stained with anti-CD11b, and anti-Ly6G/Ly-6C for flow cytometry analysis.
The myeloid derived suppressor cell (MDSC) populations in spleen tissue of each test group were investigated.
(§1) Mice were sacrificed at 23 days post tumor resection, lung, liver and spleen of test mice were excised and tumor metastasis measured by bioluminescent imaging.

[2] = test system: 4T1-luc2 tumor metastasis; assay: 4T1-luc2 tumor resection model, tumor metastasis; assay type: in vivo, BALB/c mice; settings: 23 days post tumor resection
Description: 4T1-luc2 cells (5×10^5 cells/100 μl PBS) were orthotopically implanted into mammary fat-pad of BALB/c mice. Primary tumor growth was evaluated by measuring tumor weight and by monitoring bioluminescent imaging of mammary tumors (BL1) every 7 days. For tumor resection mouse model, 4T1-luc2 cells (5×10^5 cells/100 μl PBS) were orthotopically implanted into mammary fat pad of test mice. At day 21 post tumor implantation, the tumor mass was gently surgically removed. Bioluminescent imaging of metastatic tumor was monitored by using Non-invasive in vivo imaging system (IVIS). The body weight of the test mouse was approximately 25 g.
For this experiment, at 21 days post orthotopic tumor implantation, the tissue mass of 4T1-luc2 tumors in test mice was surgically removed.
At 21 days post implantation, the tumor mass was surgically removed gently. Following surgery, each treatment group was randomly divided into control, F1 and the docetaxel groups (i.e., via iv injection with 10 mg docetaxel/kg every other 3 days). […] The BLI values for each mouse was quantitatively measured and pooled for each test group.
as §1

**Q.** How did the “4T1 tumor-induced accumulation of granulocytic MDSCs in lung, peripheral blood and spleen” value [1] turn out when `CC(=O)O[C@@]12CO[C@@H]1C[C@H](O)[C@@]1(C)C(=O)[C@H](O)C3=C(C)[C@@H](OC(=O)[C@H](O)[C@@H](NC(=O)OC(C)(C)C)c4ccccc4)C[C@@](O)([C@@H](OC(=O)c4ccccc4)[C@H]21)C3(C)C` [docetaxel] was run?
**A.** The value was “significantly reduced”.

**Q.** And the “tumor metastasis into lung (bioluminescent imaging of excised organs)” value [2]?
**A.** Its value is “effectively inhibited”.

**Q.** And the “BLI value (bioluminescent imaging, whole body)” value ([2]; BP-E-F1 oral 5 mg/kg/day, docetaxel iv 10 mg/kg every other 3 days)?
**A.** Its value is “effectively reduce”.

**Q.** What about the metastasis rate ([2]; F1 oral 5 mg/kg/day, docetaxel iv 10 mg/kg every other 3 days) of the same molecule?
**A.** The metastasis rate was 12.5%.
